Tests used:
Rattus norvegicus [1] = assay: Urine volume was measured after 4 hours following oral compound dose of 3 mg/kg in rats deprived with food or water; assay type: functional
Vasopressin V2 receptor [2] = target: T1, Vasopressin V2 receptor (Homo sapiens, UniProt P30518); assay: In vitro binding affinity to human V2 receptor
Rattus norvegicus [3] = assay: Urine volume was measured after 4 hours following oral compound dose of 10 mg/kg in a volume of 10 mL/kg (20% dimethylsulfoxide in 2.5% preboiled starch) in rats deprived with food or water; assay type: functional
Rattus norvegicus [4] = assay: Urine volume was measured after 4 hours following oral compound dose of 10 mg/kg in rats deprived of food or water (water-loaded 30 mL/kg + 0.4 ug/kg of AVP intraperitoneal); assay type: functional
Vasopressin V2 receptor [5] = target: T2, Vasopressin V2 receptor (Rattus norvegicus, UniProt Q00788); assay: Binding affinity to rat V2 receptor
Vasopressin V1a receptor [6] = target: Vasopressin V1a receptor (Rattus norvegicus, UniProt P30560); assay: In vitro binding affinity for rat V1a receptor
Vasopressin V1a receptor [7] = target: T3, Vasopressin V1a receptor (Homo sapiens, UniProt P37288); assay: In vitro binding affinity to human V1a receptor
Target sequence in this assay (P37288 whole entry): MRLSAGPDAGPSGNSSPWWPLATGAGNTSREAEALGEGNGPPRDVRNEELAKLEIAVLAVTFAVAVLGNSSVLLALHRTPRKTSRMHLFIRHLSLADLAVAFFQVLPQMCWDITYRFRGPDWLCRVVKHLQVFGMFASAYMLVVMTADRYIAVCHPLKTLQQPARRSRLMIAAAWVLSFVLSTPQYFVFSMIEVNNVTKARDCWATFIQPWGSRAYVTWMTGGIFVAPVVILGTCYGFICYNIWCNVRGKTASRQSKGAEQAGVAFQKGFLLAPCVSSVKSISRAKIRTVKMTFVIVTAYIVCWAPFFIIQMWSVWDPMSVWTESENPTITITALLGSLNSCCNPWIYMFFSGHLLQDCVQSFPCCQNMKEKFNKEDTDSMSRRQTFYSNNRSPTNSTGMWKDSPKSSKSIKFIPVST

[8] = target: Vasopressin V1a receptor (Rattus norvegicus) (UniProt P30560); assay: In vitro inhibition against rat V1a receptor at 10 uM
Vasopressin V2 receptor [9] = target: T2, Vasopressin V2 receptor; assay: In vitro for its binding affinity to rat V2 receptor
Vasopressin V1a receptor [10] = target: T3, Vasopressin V1a receptor; assay: In vitro inhibition against human V1a receptor at 10 uM
Target sequence in this assay (P37288 whole entry, looked up): as the sequence (P37288 whole entry) above

Vasopressin V2 receptor [11] = target: T1, Vasopressin V2 receptor; assay: In vitro inhibition against human V2 receptor at 10 uM

T2 sequence (Q00788 whole entry): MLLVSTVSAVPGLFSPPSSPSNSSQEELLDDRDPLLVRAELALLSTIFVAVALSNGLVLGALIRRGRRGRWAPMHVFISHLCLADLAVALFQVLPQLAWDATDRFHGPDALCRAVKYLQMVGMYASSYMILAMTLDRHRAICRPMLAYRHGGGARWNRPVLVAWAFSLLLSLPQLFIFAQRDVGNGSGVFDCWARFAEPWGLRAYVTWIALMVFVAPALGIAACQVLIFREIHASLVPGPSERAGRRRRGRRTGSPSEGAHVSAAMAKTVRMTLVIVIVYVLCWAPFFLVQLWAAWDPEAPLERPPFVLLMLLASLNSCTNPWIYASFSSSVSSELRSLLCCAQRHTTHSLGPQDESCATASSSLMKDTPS
Chain of Vasopressin V1a receptor (Rattus norvegicus, UniProt P30560) (P30560 whole entry): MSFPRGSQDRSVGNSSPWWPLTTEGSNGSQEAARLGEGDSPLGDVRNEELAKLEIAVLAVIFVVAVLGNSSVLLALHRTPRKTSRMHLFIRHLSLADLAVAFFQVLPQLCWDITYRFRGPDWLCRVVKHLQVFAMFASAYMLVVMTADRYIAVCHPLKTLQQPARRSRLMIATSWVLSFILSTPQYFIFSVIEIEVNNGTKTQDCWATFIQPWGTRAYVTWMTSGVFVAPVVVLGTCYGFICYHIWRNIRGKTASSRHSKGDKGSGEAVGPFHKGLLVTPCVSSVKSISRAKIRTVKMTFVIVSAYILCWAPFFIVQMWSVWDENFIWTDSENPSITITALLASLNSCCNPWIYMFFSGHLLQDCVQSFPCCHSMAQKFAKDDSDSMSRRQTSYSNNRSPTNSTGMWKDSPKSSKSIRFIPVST
T1 sequence (P30518 whole entry): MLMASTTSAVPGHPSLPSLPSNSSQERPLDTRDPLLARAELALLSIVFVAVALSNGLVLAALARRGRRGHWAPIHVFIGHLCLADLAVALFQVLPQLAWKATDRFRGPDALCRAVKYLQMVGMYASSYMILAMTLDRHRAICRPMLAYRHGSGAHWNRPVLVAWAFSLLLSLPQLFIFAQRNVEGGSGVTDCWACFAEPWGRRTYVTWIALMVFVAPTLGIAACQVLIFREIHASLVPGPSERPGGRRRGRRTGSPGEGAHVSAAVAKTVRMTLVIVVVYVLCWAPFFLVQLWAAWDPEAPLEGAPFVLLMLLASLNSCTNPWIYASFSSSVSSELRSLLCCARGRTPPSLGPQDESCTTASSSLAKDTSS
Chain of Vasopressin V1a receptor (Rattus norvegicus) (P30560 whole entry, looked up): as the sequence (P30560 whole entry) above

Row | SMILES | IC50 (Vasopressin V2 receptor [2]) [µM] | Urine volume (Rattus norvegicus [3]) [ml 4hr-1] | Urine volume (Rattus norvegicus [4]) [ml 4hr-1] | IC50 (Vasopressin V1a receptor [7]) [µM] | other results
1 | O=C(Nc1ccc(C(=O)N2CCc3c[nH]nc3-c3sccc32)c(Cl)c1)c1ccccc1-c1ccccc1 | 0.0017 | 27 | – | – | Urine volume (Rattus norvegicus [1]): 22 ml 4hr-1
2 | O=C(Nc1ccc(C(=O)N2Cc3cccn3Cc3ccccc32)cc1)c1ccc(Cl)cc1Cl | – | – | 16 | – | –
3 | O=C(Nc1ccc(C(=O)N2CCc3c[nH]nc3-c3sccc32)cc1)c1ccc(F)cc1Cl | 0.14 | 15 | – | – | –
4 | O=C(Nc1ccc(C(=O)N2Cc3cccn3Cc3ccccc32)cc1)c1ccccc1-c1ccccc1 | – | 21 | – | – | –
5 | O=C(Nc1ccc(C(=O)N2CCCCc3sc(Cl)cc32)cc1)c1ccc(Cl)cc1Cl | – | – | 8 | – | –
6 | Cc1ccccc1C(=O)Nc1ccc(C(=O)N2CCc3cn(C)nc3-c3sccc32)cc1 | 0.22 | 3 | – | 1.74 | IC50 (Vasopressin V2 receptor [5]): 0.024 µM; IC50 (Vasopressin V1a receptor [6]): 2.01 µM
7 | O=C(Nc1ccc(C(=O)N2CCc3c[nH]nc3-c3sccc32)c(Cl)c1)c1cc(Cl)ccc1F | – | 12 | – | – | inhibition [8]: 18%
8 | O=C(Nc1ccc(C(=O)N2CCCCc3sccc32)c(Cl)c1)c1ccccc1-c1ccccc1 | – | 19 | – | 0.086 | IC50 (Vasopressin V2 receptor [5]): 0.0012 µM
9 | Cn1cc2c(n1)-c1sccc1N(C(=O)c1ccc(NC(=O)C3CCCCC3)cc1)CC2 | – | – | 9 | – | –
10 | Cc1ccc(F)cc1C(=O)Nc1ccc(C(=O)N2CCc3c[nH]nc3-c3sccc32)c(Cl)c1 | – | 7 | – | – | IC50 (Vasopressin V2 receptor [9]): 0.006 µM; IC50 (Vasopressin V1a receptor [6]): 12.4 µM; inhibition (Vasopressin V1a receptor [10]): 69%
11 | Cc1ccccc1C(=O)Nc1ccc(C(=O)N2CCc3cn(C(=O)c4ccccc4C)nc3-c3sccc32)cc1 | – | – | 14 | – | inhibition (Vasopressin V2 receptor [11]): 88%; inhibition (Vasopressin V1a receptor [10]): 88%
12 | O=C(Nc1ccc(C(=O)N2CCCCc3sc(Cl)cc32)cc1)c1ccccc1-c1ccccc1 | – | 20 | – | 0.082 | IC50 (Vasopressin V2 receptor [5]): 0.0032 µM
13 | Cc1ccc(F)cc1C(=O)Nc1ccc(C(=O)N2CCc3c[nH]nc3-c3sccc32)cc1 | 0.071 | – | 18 | – | IC50 (Vasopressin V2 receptor [9]): 0.069 µM
14 | Cc1ccccc1C(=O)Nc1ccc(C(=O)N2CCc3c[nH]nc3-c3sccc32)cc1 | 0.13 | – | 21 | 0.24 | IC50 (Vasopressin V2 receptor [9]): 0.12 µM; IC50 (Vasopressin V1a receptor [6]): 2.1 µM
15 | O=C(Nc1ccc(C(=O)N2Cc3cccn3Cc3ccccc32)c(Cl)c1)c1ccccc1-c1ccccc1 | 0.0027 | 27 | – | 0.37 | Urine volume (Rattus norvegicus [1]): 20 ml 4hr-1
16 | Cn1cc2c(n1)-c1sccc1N(C(=O)c1ccc(NC(=O)c3ccc(Cl)cc3Cl)cc1)CC2 | 0.15 | – | 6 | 4.1 | IC50 (Vasopressin V2 receptor [5]): 0.038 µM; IC50 (Vasopressin V1a receptor [6]): 2.1 µM
17 | O=C(Nc1ccc(C(=O)N2CCCCc3sc(Cl)cc32)c(Cl)c1)c1ccccc1-c1ccccc1 | – | 22 | – | – | –
18 | Cc1ccc(F)cc1C(=O)Nc1ccc(C(=O)N2Cc3cccn3Cc3ccccc32)c(Cl)c1 [LIXIVAPTAN] | – | 22 | – | – | Urine volume (Rattus norvegicus [1]): 20 ml 4hr-1
19 | Cc1ccc(F)cc1C(=O)Nc1ccc(C(=O)N2CCCCc3sccc32)c(Cl)c1 | – | – | 4 | – | –

Source: ChEMBL document CHEMBL1133322, “The synthesis and vasopressin (AVP) antagonist activity of a novel series of N-aroyl-2,4,5,6-tetrahydropyrazolo[3,4-d]thieno[3,2-b]azepines” (Bioorg Med Chem Lett, 2000)
